# Assay results from ChEMBL document CHEMBL1201862, “PubChem BioAssay data set” (2004).
#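 How tested: cells in 96-well plates exposed to compound for 48 hours at five concentrations. GI50 marks 50% less growth.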 The source made the active and inactive calls. Cut-off read from the data, not from the text of the source: active = GI50 up to about 1.1 µM and inactive = higher. Where a SMILES comes first, the peptide text is derived from it. Bridges are numbered along the chain shown (N, C = ends). The star is where a group is joined. Cbz = O=C(OCc1ccccc1)*
# Key:
# Test in all cases: NCI tumour cell line growth inhibition, 48 h
# ACHN = system: ACHN
# CAKI-1 = system: CAKI-1
# DU-145 = system: DU-145
# HL-60 = system: HL-60
# HOP-92 = system: HOP-92
# LOX IMVI = system: LOX IMVI
# MOLT-4 = system: MOLT-4
# NCI-H23 = system: NCI-H23
# NCI-H460 = system: NCI-H460
# NCI/ADR-RES = system: NCI/ADR-RES
# RPMI-8226 = system: RPMI-8226
# SK-MEL-5 = system: SK-MEL-5
# SK-OV-3 = system: SK-OV-3
# SNB-19 = system: SNB-19
# SNB-75 = system: SNB-75
# SR = system: SR
# 786-0 = system: 786-0
# Malme-3M = system: Malme-3M
# NCI-H522 = system: NCI-H522
# BT-549 = system: BT-549
SMILES,GI50 (ACHN),GI50 (CAKI-1),GI50 (DU-145),GI50 (HL-60),GI50 (HOP-92),GI50 (LOX IMVI),GI50 (MOLT-4),GI50 (NCI-H23),GI50 (NCI-H460),GI50 (NCI/ADR-RES),GI50 (RPMI-8226),GI50 (SK-MEL-5),GI50 (SK-OV-3),GI50 (SNB-19),GI50 (SNB-75),GI50 (SR),GI50 (786-0),GI50 (Malme-3M),GI50 (NCI-H522),GI50 (BT-549)
CCOC(=O)c1csc(NC(=O)CN2CCOCC2)n1,> 100 µM (inactive),> 100 µM (inactive),> 100 µM (inactive),> 100 µM (inactive),> 100 µM (inactive),> 100 µM (inactive),17.1 µM (inactive),> 100 µM (inactive),> 100 µM (inactive),> 100 µM (inactive),> 100 µM (inactive),> 100 µM (inactive),> 100 µM (inactive),> 100 µM (inactive),> 100 µM (inactive),> 100 µM (inactive),,,,
CCCCC1c2c([nH]c3ccccc23)C2C(=O)N(c3ccc(OC)cc3)C(=O)C2C1CCC (stereo not given),5.7 µM (inactive),1.23 µM (inactive),5.12 µM (inactive),2.96 µM (inactive),3.03 µM (inactive),> 10 µM (inactive),2.74 µM (inactive),3.89 µM (inactive),4.19 µM (inactive),2.96 µM (inactive),4.61 µM (inactive),5.38 µM (inactive),> 10 µM (inactive),8.59 µM (inactive),2.55 µM (inactive),4.75 µM (inactive),4.39 µM (inactive),4.44 µM (inactive),6.28 µM (inactive),
Cc1cc(C)c(C2CC(O)C(CO)O2)cc1C (stereo not given),> 100 µM (inactive),> 100 µM (inactive),,,,> 100 µM (inactive),> 100 µM (inactive),> 100 µM (inactive),> 100 µM (inactive),67.5 µM (inactive),> 100 µM (inactive),> 100 µM (inactive),> 100 µM (inactive),> 100 µM (inactive),> 100 µM (inactive),> 100 µM (inactive),> 100 µM (inactive),> 100 µM (inactive),> 100 µM (inactive),> 100 µM (inactive)
CO[C@@]12C[C@@H](CNC(=O)c3cc(Br)c[nH]3)O[C@@H]1NC(=O)N2,> 100 µM (inactive),> 100 µM (inactive),> 100 µM (inactive),,,> 100 µM (inactive),,> 100 µM (inactive),> 100 µM (inactive),> 100 µM (inactive),> 100 µM (inactive),> 100 µM (inactive),> 100 µM (inactive),> 100 µM (inactive),> 100 µM (inactive),,> 100 µM (inactive),> 100 µM (inactive),> 100 µM (inactive),> 100 µM (inactive)
O=[N+]([O-])/C(C(Cl)=C(Cl)Cl)=C1\Nc2ccc([N+](=O)[O-])cc2N1,> 100 µM (inactive),72.1 µM (inactive),> 100 µM (inactive),,14.3 µM (inactive),,45.1 µM (inactive),> 100 µM (inactive),> 100 µM (inactive),> 100 µM (inactive),55 µM (inactive),> 100 µM (inactive),> 100 µM (inactive),> 100 µM (inactive),> 100 µM (inactive),,> 100 µM (inactive),63.5 µM (inactive),13.5 µM (inactive),62.2 µM (inactive)
Nn1c(CNc2ccc(-c3nnc(Nc4ccc(Cl)cc4)n3N)cc2)nnc1Nc1ccc(Cl)cc1,> 100 µM (inactive),> 100 µM (inactive),> 100 µM (inactive),,> 100 µM (inactive),,55.7 µM (inactive),> 100 µM (inactive),> 100 µM (inactive),> 100 µM (inactive),61.9 µM (inactive),> 100 µM (inactive),> 100 µM (inactive),> 100 µM (inactive),> 100 µM (inactive),,> 100 µM (inactive),> 100 µM (inactive),75.5 µM (inactive),> 100 µM (inactive)
C[P+](c1ccccc1)(c1ccc(Cl)cc1)c1ccc(Cl)cc1,29.1 µM (inactive),,18.4 µM (inactive),,10.3 µM (inactive),11.1 µM (inactive),,12.3 µM (inactive),24.2 µM (inactive),> 100 µM (inactive),0.432 µM (active),2.84 µM (inactive),37.2 µM (inactive),13 µM (inactive),14.4 µM (inactive),,31.3 µM (inactive),4.19 µM (inactive),12.9 µM (inactive),21.3 µM (inactive)
S=C(NN=C1NCCCCN1)Nc1ccc(Cl)cc1,7.29 µM (inactive),< 0.01 µM (active),,8.18 µM (inactive),29.8 µM (inactive),11.7 µM (inactive),6.67 µM (inactive),18.5 µM (inactive),3.78 µM (inactive),23.4 µM (inactive),7.83 µM (inactive),5.36 µM (inactive),15.1 µM (inactive),77.6 µM (inactive),23.8 µM (inactive),11.8 µM (inactive),7.35 µM (inactive),17.1 µM (inactive),12.9 µM (inactive),64.3 µM (inactive)
CC(=O)OC[C@H]1O[C@@H](O[C@H]2[C@H](OC(C)=O)C=CO[C@@H]2COC(C)=O)C(OC(C)=O)[C@H]2OC(C)(C)O[C@H]21 (stereo not given in full),> 100 µM (inactive),> 100 µM (inactive),,,52.8 µM (inactive),> 100 µM (inactive),> 100 µM (inactive),> 100 µM (inactive),> 100 µM (inactive),> 100 µM (inactive),,58.9 µM (inactive),> 100 µM (inactive),> 100 µM (inactive),30.5 µM (inactive),43.3 µM (inactive),> 100 µM (inactive),> 100 µM (inactive),17.1 µM (inactive),36.6 µM (inactive)
COC(=O)C1CCCCNC(=O)CCC(NC(=O)OCc2ccccc2)C(=O)N1 (stereo not drawn) (Cbz-Glu-Lys-OMe; lactam 1-2; configuration not given here),> 100 µM (inactive),> 100 µM (inactive),> 100 µM (inactive),> 100 µM (inactive),43.6 µM (inactive),> 100 µM (inactive),> 100 µM (inactive),> 100 µM (inactive),> 100 µM (inactive),> 100 µM (inactive),> 100 µM (inactive),> 100 µM (inactive),56.1 µM (inactive),66.7 µM (inactive),> 100 µM (inactive),> 100 µM (inactive),43.6 µM (inactive),> 100 µM (inactive),> 100 µM (inactive),
CCOS(C)(=O)=O [METHANESULFONIC ACID ETHYL ESTER],> 100 µM (inactive),> 100 µM (inactive),> 100 µM (inactive),> 100 µM (inactive),17 µM (inactive),> 100 µM (inactive),> 100 µM (inactive),> 100 µM (inactive),> 100 µM (inactive),> 100 µM (inactive),,> 100 µM (inactive),> 100 µM (inactive),> 100 µM (inactive),,,> 100 µM (inactive),> 100 µM (inactive),> 100 µM (inactive),> 100 µM (inactive)
